In US8946413B2 (Pfizer Inc., priority 2008, dated 2015):
Read-outs that look alike come from different tables or passages of the source.

Target: T1, CCR2 (Homo sapiens, UniProt P41597)
T1 construct: (leukophoresis pack); host or cells: human peripheral blood mononuclear cells (PBMCs) from a normal human leukophoresis pack
Assay: hCCR2 (125-I hMCP-1) small molecule binding assay on human PBMCs
Conditions: 125I-MCP-1, human PBMCs
Text: The CCR2 antagonist activity of compounds of the invention can be reported as the inhibitor concentration required for 50% inhibition (IC50 values) of specific binding in receptor binding assays using 125I-labeled MCP-1, as ligand, and Peripheral Blood Mononuclear Cells (PBMCs) prepared from normal human whole blood via density gradient centrifugation. Specific binding is defined as the total binding (e.g., total cpm on filters) minus the non-specific binding. Non-specific binding is defined as the amount of cpm still defected in the presence of excess unlabeled competitor (e.g., MCP-1),
Human PBMCs were used to test compounds of the invention in a binding assay. For example, 200,000 to 500,000 cells were incubated with 0.1 to 0.2 nM 125I-labeled MCP-1, with or without unlabeled competitor (10 nM MCP-1) or various concentrations of compounds to be tested. 125I-labeled MCP-1, were prepared by suitable methods or purchased from commercial vendors (Perkin Elmer, Boston Mass.). The binding reactions were performed in 50 to 250 μL of a binding buffer consisting of […] pH 7.2, and 0.1% BSA (bovine serum albumin), for 30 minutes at room temperature. The binding reactions were terminated by harvesting the membranes by rapid filtration through glass fiber filters (Perkin Elmer) which was presoaked in 0.3% polyethyleneimine or Phosphate Buffered Saline (PBS). The filters were rinsed with approximately 600 μL of binding buffer containing, 0.5 M NaCl or PBS, then dried, and the amount of bound radioactivity was determined by counting on a Gamma Counter (Perkin Elmer).
More specifically, the following assay may be employed to determine IC50 values for the compounds of the present invention.
hCCR2 (125-I hMCP-1) Small Molecule Binding Assay
Normal human leukophoresis pack contents, available from Biological Specialty Corporation, Colmar, Pa., is diluted 1:1 with PBS, divided into 50 ml conical tubes (preferably less than 40 mls per tube), and underlayed with 10 mls of Ficoll-Paque PLUS (GE Healthcare 17-1440-02). The tubes are centrifuged at 2800 rpm in a clinical centrifuge at room temperature for 30 mins, with no brake. The plasma layer is suctioned, and the buffycoat layer is collected. The collected buffycoat layer is washed twice with 50 mls PBS, and centrifuged at 1400 rpm with brake. The cells are counted. The cells are then diluted to 1×10^7 cells per ml in binding buffer.
96 well plates (such as, for example, Millipore MultiScreen96 plates) are pre-wet with about 100 μl binding buffer (RPMI+0.1% BSA+20 mM HEPES), and blotted just prior to compound addition.
5 μl of 50 μM test compounds in 100% DMSO are dotted onto U-bottom polypropylene 96-well plates.
245 μl per well of Binding Buffer is added to each well for 1 μM compound concentration in 2% DMSO.
50 μl of 1 μM compound is transferred to pre-wetted Millipore plates. 50 μl per well of 1×10E7 cells per ml of freshly prepared human PBMCs are added.
The samples are pre-incubated at room temperature for 30 minutes or 1 hour.
50 μl of 450 pM 125-I-hMCP-1 (Perkin-Elmer/NEN cat#NEX332025UC) is added for a final concentration 125-I-hMCP-1 of 150 pM per well.
The final test compound concentration is 0.333 uM in 150 μl total volume with 0.67% DMSO in all wells. Controls for this assay consist of 0% inhibition and 100% inhibition with 1 uM hMCP-1 (saturating conditions). All wells are run in duplicate. Controls may be in replicates of eight.
The samples are incubated at room temperature for 30 minutes.
The buffer is suctioned through the Millipore plates. The plates are washed three times with Wash Buffer (PRMI+0.1% BSA+20 mM HEPES+ 0.4 M NaC).
The plate underdrain is removed. The plate filters are allowed to dry. The filters are then punched out into plastic tubes.
Finally, the sample is counted an a Gamma Counter.
All IC50 plates were repeated for an n=2.
The following table summarizes the IC50 values identified through the described assay.

[1] = 30 min preincubation, read-out: IC50 (nM) 30 min preinc
[2] = 1 hr preincubation, read-out: IC50 (nM) 1 hr preinc

T1 sequence (P41597 whole entry): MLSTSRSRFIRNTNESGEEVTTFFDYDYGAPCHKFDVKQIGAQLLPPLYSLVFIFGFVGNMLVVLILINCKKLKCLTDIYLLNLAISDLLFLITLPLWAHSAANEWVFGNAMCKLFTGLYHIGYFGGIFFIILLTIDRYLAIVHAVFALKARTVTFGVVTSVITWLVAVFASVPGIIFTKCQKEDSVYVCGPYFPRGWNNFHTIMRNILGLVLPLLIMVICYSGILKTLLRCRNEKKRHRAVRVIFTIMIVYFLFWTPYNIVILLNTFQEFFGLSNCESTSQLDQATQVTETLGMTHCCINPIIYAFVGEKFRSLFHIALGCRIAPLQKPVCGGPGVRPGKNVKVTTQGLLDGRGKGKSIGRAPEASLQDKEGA

| Structure (SMILES) | IC50 [1] [nM] | IC50 [2] [nM] |
| --- | --- | --- |
| CO[C@@H]1COCC[C@@H]1N[C@@H]1CC[C@](CC(F)(F)F)(C(=O)N2C[C@@H]3C[C@H]2CN3c2cc(C(F)(F)F)ccn2)C1 [Example 33, 1,5-anhydro-2,3-dideoxy-4-O-methyl-3-{[(1R,3S)-3-(2,2,2-trifluoroethyl)-3-({(1S,4S)-5-[4-(trifluoromethyl)pyridin-2-yl]-2,5-diazabicyclo[2.2.1]hept-2-yl}carbonyl)cyclopentyl]amino}-D-erythro-pentitol] | 57.3 | 11.7 |
| CO[C@@H]1COCC[C@@H]1N[C@@H]1CC[C@](CC(F)(F)F)(C(=O)N2C[C@@H]3C[C@H]2CN3c2ccnc(C(F)(F)F)c2)C1 [Example 34, 1,5-anhydro-2,3-dideoxy-4-O-methyl-3-{[(1R,3S)-3-(2,2,2-trifluoroethyl)-3-({(1S,4S)-5-[2-(trifluoromethyl)pyridin-4-yl]-2,5-diazabicyclo[2.2.1]hept-2-yl}carbonyl)cyclopentyl]amino}-D-erythro-pentitol] | 66.5 | 6.94 |
| CO[C@@H]1COCC[C@@H]1N[C@@H]1CC[C@](CC(F)(F)F)(C(=O)N2C[C@@H]3C[C@H]2CN3c2nccc(C(F)(F)F)n2)C1 [Example 35, 1,5-anhydro-2,3-dideoxy-4-O-methyl-3-{[(1R,3S)-3-(2,2,2-trifluoroethyl)-3-({(1S,4S)-5-[4-(trifluoromethyl)pyrimidin-2-yl]-2,5-diazabicyclo[2.2.1]hept-2-yl}carbonyl)cyclopentyl]amino}-D-erythro-pentitol] | 28.4 | 5.52 |
| CO[C@@H]1COCC[C@@H]1N[C@@H]1CC[C@](CC(F)(F)F)(C(=O)N2C[C@@H]3C[C@H]2CN3c2cccc(C(F)(F)F)n2)C1 [Example 36, 1,5-anhydro-2,3-dideoxy-4-O-methyl-3-{[(1R,3S)-3-(2,2,2-trifluoroethyl)-3-({(1S,4S)-5-[6-(trifluoromethyl)pyridin-2-yl]-2,5-diazabicyclo[2.2.1]hept-2-yl}carbonyl)cyclopentyl]amino}-D-erythro-pentitol] | 12.6 | 2.19 |
| CO[C@@H]1COCC[C@@H]1N[C@@H]1CC[C@](CC(F)(F)F)(C(=O)N2C[C@@H]3C[C@H]2CN3c2cncc(C(F)(F)F)n2)C1 [Example 37] |  | 3.68 |
| CO[C@@H]1COCC[C@@H]1N[C@@H]1CC[C@](CC(F)(F)F)(C(=O)N2C[C@@H]3C[C@H]2CN3c2ccnc(C(F)(F)F)n2)C1 [Example 38, 1,5-anhydro-2,3-dideoxy-4-O-methyl-3-{[(1R,3S)-3-(2,2,2-trifluoroethyl)-3-({(1S,4S)-5-[2-(trifluoromethyl)pyrimidin-4-yl]-2,5-diazabicyclo[2.2.1]hept-2-yl}carbonyl)cyclopentyl]amino}-D-erythro-pentitol] | 68.7 | 2.02 |
| CO[C@@H]1COCC[C@@H]1N[C@@H]1CC[C@](CC(F)(F)F)(C(=O)N2C[C@@H]3C[C@H]2CN3c2cc(C(F)(F)F)cnn2)C1 [Example 39, 1,5-anhydro-2,3-dideoxy-4-O-methyl-3-{[(1R,3S)-3-(2,2,2-trifluoroethyl)-3-({(1S,4S)-5-[5-(trifluoromethyl)pyridazin-3-yl]-2,5-diazabicyclo[2.2.1]hept-2-yl}carbonyl)cyclopentyl]amino}-D-erythro-pentitol] | 82.9 | 5.81 |
| CO[C@@H]1COCC[C@@H]1N[C@@H]1CC[C@](CC(F)(F)F)(C(=O)N2C[C@@H]3C[C@H]2CN3C(=O)OC(C)(C)C)C1 [Example 44, 1,5-anhydro-3-{[(1R,3S)-3-{[(1S,4S)-5-(tert-butoxycarbonyl)-2,5-diazabicyclo[2.2.1]hept-2-yl]carbonyl}-3-(2,2,2-trifluoroethyl)cyclopentyl]amino}-2,3-dideoxy-4-O-methyl-D-erythro-pentitol] |  | 8.1 |

The next lines start with the values.

| IC50 [1] [nM] | IC50 [2] [nM] | Structure (SMILES) |
| --- | --- | --- |
| 18.3 |  | CO[C@@H]1COCC[C@@H]1N[C@@H]1C=C[C@@](C(=O)N2C[C@@H]3C[C@H]2CN3c2cc(C(F)(F)F)ccn2)(C(C)C)C1 [Example 40, 1,5-anhydro-2,3-dideoxy-3-{[(1S,4S)-4-isopropyll-4-({(1S,4S)-5-[4-(trifluoromethyl)pyridin-2-yl]-2,5-diazabicyclo[2.2.1]hept-2-yl}carbonyl)cyclopent-2-en-1-yl]amino}-4-O-methyl-D-erythro-pentitol] |
| 63.6 |  | CO[C@@H]1COCC[C@@H]1N[C@@H]1C=C[C@@](C(=O)N2C[C@@H]3C[C@H]2CN3c2nccc(C(F)(F)F)n2)(C(C)C)C1 [Example 41, 1,5-anhydro-2,3-dideoxy-3-{[(1S,4S)-4-isopropyll-4-({(1S,4S)-5-[4-(trifluoromethyl)pyrimidin-2-yl]-2,5-diazabicyclo[2.2.1]hept-2-yl}carbonyl)cyclopent-2-en-1-yl]amino}-4-O-methyl-D-erythro-pentitol] |
| 70.9 |  | CO[C@@H]1COCC[C@@H]1N[C@@H]1C=C[C@@](C(=O)N2C[C@@H]3C[C@H]2CN3c2cccc(C(F)(F)F)n2)(C(C)C)C1 [Example 42, 1,5-anhydro-2,3-dideoxy-3-{[(1S,4S)-4-isopropyll-4-({(1S,4S)-5-[6-(trifluoromethyl)pyridin-2-yl]-2,5-diazabicyclo[2.2.1]hept-2-yl}carbonyl)cyclopent-2-en-1-yl]amino}-4-O-methyl-D-erythro-pentitol] |
| 47.3 |  | CO[C@@H]1COCC[C@@H]1N[C@@H]1C=C[C@@](C(=O)N2C[C@@H]3C[C@H]2CN3c2cncc(C(F)(F)F)n2)(C(C)C)C1 [Example 43, 1,5-anhydro-2,3-dideoxy-3-{[(1S,4S)-4-isopropyll-4-({(1S,4S)-5-[6-(trifluoromethyl)pyrazin-2-yl]-2,5-diazabicyclo[2.2.1]hept-2-yl}carbonyl)cyclopent-2-en-1-yl]amino}-4-O-methyl-D-erythro-pentitol] |
| 25.3 |  | CO[C@@H]1COCC[C@@H]1N[C@@H]1CC[C@@](C(=O)N2C[C@@H]3C[C@H]2CN3c2cccc(C(F)(F)F)n2)(C2(O)CCC2)C1 [Example 45, 1,5-anhydro-2,3-dideoxy-3-{[(1R,3S)-3-(1-hydroxycyclobutyl)-3-({(1S,4S)-5-[6-(trifluoromethyl)pyridin-2-yl]-2,5-diazabicyclo[2.2.1]hept-2-yl}carbonyl)cyclopentyl]amino}-4-O-methyl-D-erythro-pentitol] |
| 3.19 |  | CO[C@@H]1COCC[C@@H]1N[C@@H]1CC[C@@](C(=O)N2C[C@@H]3C[C@H]2CN3c2cc(C(F)(F)F)ccn2)(C2(O)CCC2)C1 [Example 46, 1,5-anhydro-2,3-dideoxy-3-{[(1R,3S)-3-(1-hydroxycyclobutyl)-3-({(1S,4S)-5-[4-(trifluoromethyl)pyridin-2-yl]-2,5-diazabicyclo[2.2.1]hept-2-yl}carbonyl)cyclopentyl]amino}-4-O-methyl-D-erythro-pentitol] |
| 6.16 |  | CO[C@@H]1COCC[C@@H]1N[C@@H]1CC[C@@](C(=O)N2C[C@@H]3C[C@H]2CN3c2nccc(C(F)(F)F)n2)(C2(O)CCC2)C1 [Example 47, 1,5-anhydro-2,3-dideoxy-3-{[(1R,3S)-3-(1-hydroxycyclobutyl)-3-({(1S,4S)-5-[4-(trifluoromethyl)pyrimidin-2-yl]-2,5-diazabicyclo[2.2.1]hept-2-yl}carbonyl)cyclopentyl]amino}-4-O-methyl-D-erythro-pentitol] |
